Experimental data reported in patent publication US8097612B2 (priority 2006, dated 2012).

Key:
F1Fo-ATPase [1] = conditions: macrolide, non-competitive inhibitor binding to Fo; read-out: IC50 for inhibition of the F1Fo-ATPase; cited from earlier work
rodents = conditions: two daily doses; cited from earlier work
F1Fo-ATPase [2] = assay: Inhibition of the F1Fo-ATPase; format: biochemical; conditions: binds to the OSCP in F1
Description: F1Fo-ATPase inhibitors are invaluable tools for mechanistic studies of the F1Fo-ATPase (see, e.g., James A M, et al., J Biomed Sci 2002; 9:475-87; herein incorporated by reference in its entirety). Because F1Fo-ATPase inhibitors are often cytotoxic, they have been explored as drugs for cancer and other hyperproliferative disorders. Macrolides (e.g., oligomycin and apoptolidin) are non-competitive inhibitors of the F1Fo-ATPase (see, e.g., Salomon A R, et al., PNAS 2000; 97:14766-71; Salomon A R, et al., Chem Biol 2001; 8:71-80; herein incorporated by reference in its entirety). Macrolides bind to Fo which blocks proton flow through the channel resulting in inhibition of the F1Fo-ATPase. Macrolides are potent (e.g., the IC50 for oligomycin=10 nM) and lead to large decreases in [ATP]. As such, macrolides have an unacceptably narrow therapeutic index and are highly toxic (e.g., the LD50 for oligomycin in rodents is two daily doses at 0.5 mg/kg) (see, e.g., Kramar R, et al., Agents & Actions 1984, 15:660-63; herein incorporated by reference in its entirety). Other inhibitors of F1Fo-ATPase include Bz-423, which binds to the OSCP in F1 (as described elsewhere herein). Bz-423 has an Ki˜9 μM.

| SMILES | IC50 (F1Fo-ATPase [1]) [µM] | LD50 (rodents) [mg/kg] | Ki (F1Fo-ATPase [2]) [µM] |
| --- | --- | --- | --- |
| CC[C@H]1/C=C/C=C/C[C@@H](C)[C@H](O)[C@@](C)(O)C(=O)[C@@H](C)[C@H](O)[C@@H](C)C(=O)[C@@H](C)[C@H](O)[C@@H](C)/C=C/C(=O)O[C@@H]2[C@H](C)[C@H](CC1)O[C@]1(CC[C@H](C)[C@H](C[C@@H](C)O)O1)[C@H]2C [oligomycin] | 0.01 | 0.5 |  |
| CN1C(=O)C(Cc2ccc3ccccc3c2)N=C(c2ccc(O)cc2)c2cc(Cl)ccc21 (stereo not drawn) [Bz-423] |  |  | ~9 |
